According to patent US20080207614A1, “QUINAZOLINE DERIVATIVES FOR THE TREATMENT AND PREVENTION OF DIABETES AND OBESITY” (SK CHEMICALS CO., LTD., priority 2004, published 2008):

Key:
[1] = tested on: AMPK; test: Measurement of AMPK activity by Western blot in C2C12 cells; assay type: cell-based; set-up: key to AMPK activity (degree of phosphorylation of serine-79 and threonine-172): fold increase in threonine-172 phosphorylation; AMPK activity (degree of phosphorylation of serine-79): unit not given here; details: 10 μM for 50 minutes; for AMPK activity (degree of phosphorylation of serine-79 and threonine-172): no superscript: Western blot of serine-79 and threonine-172 phosphorylation; for AMPK activity (class: degree of phosphorylation of threonine-172): strong/mild/weak; for AMPK activity (degree of phosphorylation of serine-79): footnote a: Western blot of serine-79 phosphorylation
In short: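 Western blot readout of AMPK Thr-172 and ACC Ser-79 phosphorylation, normalised against ERK, served as the activity measure. Cells were C2C12 after differentiation, treated 50 minutes with 10 μM test material. Grading by Thr-172 increase: ≥3-fold strong, 1-3-fold mild, <1-fold weak.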

[2] = tested on: C2C12 muscle cells; test: Analysis of glucose absorption (2-deoxyglucose) in differentiated C2C12 muscle cells; assay type: cell-based; details: test materials 10 μM, times relative to control group
In short: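 Uptake of 0.2 μCi 2-deoxyglucose over 20 min, counted radiometrically in lysed cells. Before tracer, compounds (10 μM) were applied for 30 min to C2C12 cells differentiated 6 days in 1% serum and equilibrated 3 h in 5 mM glucose KRB.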

Compound | AMPK activity (degree of phosphorylation of serine-79 and threonine-172) [1] | AMPK activity (class: degree of phosphorylation of threonine-172) [1] | Glucose absorption [2] | AMPK activity (degree of phosphorylation of serine-79) [1]
FC(F)(F)c1ccc(CNc2nc(-c3ccccc3)nc3ccccc23)cc1 [Compound 139, (2-Phenylquinazolino-4-yl)-(4-trifluoromethylbenzyl)-amine] | 2.1 | strong (“strong” means that the degree of phosphorylation of threonine-172 increased by 3 times or more) | 2.5 | 
CCCc1nc(NCc2ccc(OC)cc2)c2ccccc2n1 [Compound 395, (4-Methoxybenzyl)-(2-propylquinazolino-4-yl)-amine] | 7.0 |  | 1.2 | 
CCCNc1nc(-c2ccccc2)nc2ccccc12 [Compound 61, (2-Phenylquinazolino-4-yl)-propylamine] |  | weak (“weak” means that the degree of phosphorylation of threonine-172 increased by less than 1 time) | 1.9 | 
Cc1nc(NCc2cccc(F)c2)c2ccccc2n1 [Compound 171, (3-Fluorobenzyl)-(2-methylquinazolino-4-yl)-amine] | 6.6 | strong (“strong” means that the degree of phosphorylation of threonine-172 increased by 3 times or more) | 2.2 | 
CC(C)Nc1nc(C(Cl)(Cl)Cl)nc2ccccc12 [Compound 2, Isopropyl-(2-trichloromethylquinazolino-4-yl)-amine] |  |  | 1.3 | 4.2^a
COc1ccc(CNc2nc(C(C)C)nc3ccccc23)cc1 [Compound 177, (2-Isopropylquinazolino-4-yl)-(4-methoxybenzyl)-amine] | 5.5 | strong (“strong” means that the degree of phosphorylation of threonine-172 increased by 3 times or more) | 2.8 | 
CCCc1nc(NCc2ccc3c(c2)OCO3)c2ccccc2n1 [Compound 396, Benzo[1,3]dioxol-5-ylmethyl-(2-propylquinazolino-4-yl)-amine] | 7.3 |  | 1.3 | 
FC(F)(F)c1cccc(CNc2nc(-c3ccccn3)nc3ccccc23)c1 [Compound 226, (2-Pyridino-2-ylquinazolino-4-yl)-(3-trifluoromethylbenzyl)-amine] | 4.3 | strong (“strong” means that the degree of phosphorylation of threonine-172 increased by 3 times or more) | 1.9 | 
ClC(Cl)(Cl)c1nc(NCCCCc2ccccc2)c2ccccc2n1 [Compound 6, (4-Phenylbutyl)-(2-trichloromethylquinazolino-4-yl)-amine] |  |  | 1.4 | 4.7^a
Cc1nc(NCCc2cccc(F)c2)c2ccccc2n1 [Compound 172, [2-(3-Fluorophenyl)-ethyl]-(2-methylquinazolino-4-yl)-amine] | 4.4 | strong (“strong” means that the degree of phosphorylation of threonine-172 increased by 3 times or more) | 2.6 | 
CC(C)c1nc(NCc2cccc(F)c2)c2ccccc2n1 [Compound 183, (3-Fluorobenzyl)-(2-isopropylquinazolino-4-yl)-amine] | 2.6 | strong (“strong” means that the degree of phosphorylation of threonine-172 increased by 3 times or more) | 3.3 | 
COc1ccc(CNc2nc(C(C)C)nc3ccccc23)cc1OC [Compound 324, (3,4-Dimethoxybenzyl)-(2-isopropylquinazolino-4-yl)-amine] | 2.3 |  | 1.3 | 
Cc1nc(NCc2ccccc2)c2ccccc2n1 [Compound 163, Benzyl-(2-methylquinazolino-4-yl)-amine] | 2.8 | strong (“strong” means that the degree of phosphorylation of threonine-172 increased by 3 times or more) | 2.5 | 
CCSc1nc(NCc2cccc(OC)c2)c2ccccc2n1 [Compound 24, (2-Ethylsulfanylquinazolino-4-yl)-(3-methoxybenzyl)-amine] |  | strong (“strong” means that the degree of phosphorylation of threonine-172 increased by 3 times or more) | 2.8 | 
Clc1cccc(CNc2nc(-c3ccccc3)nc3ccccc23)c1 [Compound 145, (3-Chlorobenzyl)-(2-phenylquinazolino-4-yl)-amine] | 2.7 | strong (“strong” means that the degree of phosphorylation of threonine-172 increased by 3 times or more) | 2.2 | 
COc1ccc(OC)c(CNc2nc(N3CCCCC3)nc3ccccc23)c1 [Compound 296, (2,5-Dimethoxybenzyl)-(2-piperidino-1-ylquinazolino-4-yl)-amine] | 1.0 |  | 0.9 | 
CCSc1nc(NCCc2ccccc2)c2ccccc2n1 [Compound 29, (2-Ethylsulfanylquinazolino-4-yl)-phenethylamine] |  | mild (“mild” means that the degree of phosphorylation of threonine-172 increased by 1 to 3 times) | 1.6 | 
COc1cccc(CNc2nc(C(C)c3ccccc3)nc3ccccc23)c1 (centres unmarked) [Compound 372, (3-Methoxybenzyl)-[2-(1-phenylethyl)-quinazolino-4-yl]-amine] | 6.3 |  | 1.1 | 
Fc1ccc(F)c(CNc2nc(-c3ccccc3)nc3ccccc23)c1 [Compound 135, (2,5-Difluorobenzyl)-(2-phenylquinazolino-4-yl)-amine] | 2.0 | strong (“strong” means that the degree of phosphorylation of threonine-172 increased by 3 times or more) | 2.6 | 
CCCc1nc(NCc2cc(OC)cc(OC)c2)c2ccccc2n1 [Compound 398, (3,5-Dimethoxybenzyl)-(2-propylquinazolino-4-yl)-amine] | 7.8 |  | 1.4 | 
COC(c1ccccc1)c1nc(NCc2ccc3c(c2)OCO3)c2ccccc2n1 (centres unmarked) [Compound 363, Benzo[1,3]dioxol-5-ylmethyl-[2-(methoxyphenylmethyl)-quinazolino-4-yl]-amine] | 1.4 |  | 1.3 | 
CC(C)c1nc(NCCc2cccc(F)c2)c2ccccc2n1 [Compound 184, [2-(3-Fluorophenyl)-ethyl]-(2-isopropylquinazolino-4-yl)-amine] | 1.9 | strong (“strong” means that the degree of phosphorylation of threonine-172 increased by 3 times or more) | 3.2 | 
Clc1ccc(CCNc2nc(-c3ccccc3)nc3ccccc23)cc1 [Compound 123, [2-(4-chlorophenyl)-ethyl]-(2-phenylquinazolino-4-yl)-amine] | 2.3 | strong (“strong” means that the degree of phosphorylation of threonine-172 increased by 3 times or more) | 2.1 | 
CCCc1nc(NCc2cccc(OC)c2)c2ccccc2n1 [Compound 394, (3-Methoxybenzyl)-(2-propylquinazolino-4-yl)-amine] | 4.5 |  | 1.3 | 
COc1cccc(CNc2nc(C(C)C)nc3ccccc23)c1 [Compound 176, (2-Isopropylquinazolino-4-yl)-(3-methoxybenzyl)-amine] | 4.4 | strong (“strong” means that the degree of phosphorylation of threonine-172 increased by 3 times or more) | 2.4 | 
COc1ccccc1CNc1nc(C(C)c2ccccc2)nc2ccccc12 (centres unmarked) [Compound 371, (2-Methoxybenzyl)-[2-(1-phenylethyl)-quinazolino-4-yl]-amine] | 2.8 |  | 1.2 | 
COc1ccc(OC)c(CNc2nc(C(OC)c3ccccc3)nc3ccccc23)c1 (centres unmarked) [Compound 369, (2,5-Dimethoxybenzyl)-[2-(methoxyphenylmethyl)-quinazolino-4-yl]-amine] | 4.5 |  | 1.1 | 
CCCNc1nc(C(Cl)(Cl)Cl)nc2ccccc12 [Compound 7, Propyl-(2-trichloromethylquinazolino-4-yl)-amine] |  |  | 1.5 | 4.4^a
CC1CCCC(Nc2nc(-c3ccccc3)nc3ccccc23)C1C (centres unmarked) [Compound 143, (2,3-Dimethylcyclohexyl)-(2-phenylquinazolino-4-yl)-amine] | 2.4 | strong (“strong” means that the degree of phosphorylation of threonine-172 increased by 3 times or more) | 2.3 | 
